Measurements published in ChEMBL document CHEMBL3045723, “Synthesis of novel 3-(5-sulfanyl-1,3,4-oxadiazol-2-yl)-2H-chromen-2-one condensed s-triazinyl piperazines and piperidines as antimicrobial agents” (2012).
Converted amounts (≈) assume the structure as drawn.

How the values were obtained:
Format in all cases: functional
Escherichia coli [1] = experiment: Antibacterial activity against Escherichia coli MTCC 739 after 24 hr by agar disk diffusion test
Klebsiella pneumoniae [2] = experiment: Antibacterial activity against Klebsiella pneumoniae MTCC 109 after 24 hr by agar disk diffusion test
Shigella flexneri [3] = experiment: Antibacterial activity against Shigella flexneri after 24 hr by agar disk diffusion test
Proteus vulgaris [4] = experiment: Antibacterial activity against Proteus vulgaris MTCC 1771 after 24 hr by agar disk diffusion test
Shigella flexneri [5] = experiment: Antibacterial activity against Shigella flexneri after 24 hr
Candida albicans [6] = experiment: Antifungal activity against Candida albicans MTCC 183 after 24 hr by agar disk diffusion test
Bacillus cereus [7] = experiment: Antibacterial activity against Bacillus cereus MTCC 619 after 24 hr by agar disk diffusion test
Staphylococcus aureus [8] = experiment: Antibacterial activity against Staphylococcus aureus MTCC 96 after 24 hr; settings: MTCC 96, 24 h
Klebsiella pneumoniae [9] = experiment: Antibacterial activity against Klebsiella pneumoniae MTCC 109 after 24 hr; settings: MTCC 109, 24 h
Pseudomonas aeruginosa [10] = experiment: Antibacterial activity against Pseudomonas aeruginosa MTCC 741
Aspergillus niger [11] = experiment: Antifungal activity against Aspergillus niger MTCC 282 after 48 hr; settings: MTCC 282, 48 h
Salmonella typhi [12] = experiment: Antibacterial activity against Salmonella enterica subsp. enterica serovar Typhi MTCC 733 after 24 hr by agar disk diffusion test
Staphylococcus aureus [13] = experiment: Antibacterial activity against Staphylococcus aureus MTCC 96 after 24 hr by agar disk diffusion test
Salmonella typhi [14] = experiment: Antibacterial activity against Salmonella enterica subsp. enterica serovar Typhi MTCC 733 after 24 hr; settings: MTCC 733, 24 h
Pseudomonas aeruginosa [15] = experiment: Antibacterial activity against Pseudomonas aeruginosa MTCC 741 after 24 hr by agar disk diffusion test
Proteus vulgaris [16] = experiment: Antibacterial activity against Proteus vulgaris MTCC 1771 after 24 hr; settings: MTCC 1771, 24 h
Bacillus cereus [17] = experiment: Antibacterial activity against Bacillus cereus MTCC 619 after 24 hr; settings: MTCC 619, 24 h
Aspergillus niger [18] = experiment: Antifungal activity against Aspergillus niger MTCC 282 after 24 hr by agar disk diffusion test
Candida albicans [19] = experiment: Antifungal activity against Candida albicans MTCC 183 after 48 hr; settings: MTCC 183, 48 h
Escherichia coli [20] = experiment: Antibacterial activity against Escherichia coli MTCC 739 after 24 hr; settings: MTCC 739, 24 h

| Structure (SMILES) | inhibition zone (IZ) (Escherichia coli [1]) [mm] | inhibition zone (IZ) (Klebsiella pneumoniae [2]) [mm] | inhibition zone (IZ) (Shigella flexneri [3]) [mm] | inhibition zone (IZ) (Proteus vulgaris [4]) [mm] | MIC (Shigella flexneri [5]) [µg/mL] | inhibition zone (IZ) (Candida albicans [6]) [mm] | inhibition zone (IZ) (Bacillus cereus [7]) [mm] | MIC (Staphylococcus aureus [8]) [µg/mL] | MIC (Klebsiella pneumoniae [9]) [µg/mL] | MIC (Pseudomonas aeruginosa [10]) [µg/mL] | MIC (Aspergillus niger [11]) [µg/mL] | inhibition zone (IZ) (Salmonella typhi [12]) [mm] | inhibition zone (IZ) (Staphylococcus aureus [13]) [mm] | MIC (Salmonella typhi [14]) [µg/mL] | inhibition zone (IZ) (Pseudomonas aeruginosa [15]) [mm] | MIC (Proteus vulgaris [16]) [µg/mL] | MIC (Bacillus cereus [17]) [µg/mL] | inhibition zone (IZ) (Aspergillus niger [18]) [mm] | MIC (Candida albicans [19]) [µg/mL] | MIC (Escherichia coli [20]) [µg/mL] |
| --- | --- | --- | --- | --- | --- | --- | --- | --- | --- | --- | --- | --- | --- | --- | --- | --- | --- | --- | --- | --- |
| O=c1oc2ccccc2cc1-c1nnc(Sc2nc(Oc3cccc4cccnc34)nc(N3CCC(Cc4ccccc4)CC3)n2)o1 | 12 | <10 | 11 | <10 | 100 (≈ 156 µM) | 13 | 13 | 100 (≈ 156 µM) | 100 (≈ 156 µM) | 100 (≈ 156 µM) | 100 (≈ 156 µM) | 14 | 16 | 100 (≈ 156 µM) | <10 | 100 (≈ 156 µM) | 100 (≈ 156 µM) | <10 | 100 (≈ 156 µM) | 100 (≈ 156 µM) |
| CC1CC(C)CN(c2nc(Oc3cccc4cccnc34)nc(Sc3nnc(-c4cc5ccccc5oc4=O)o3)n2)C1 (stereo not given) | 20 | 16 | 24 | 19 | 25 (≈ 43.1 µM) | 16 | 21 | 25 (≈ 43.1 µM) | 100 (≈ 173 µM) | 12.5 (≈ 21.6 µM) | 25 (≈ 43.1 µM) | 23 | 22 | 12.5 (≈ 21.6 µM) | 22 | 100 (≈ 173 µM) | 50 (≈ 86.3 µM) | 23 | 100 (≈ 173 µM) | 50 (≈ 86.3 µM) |
| O=c1oc2ccccc2cc1-c1nnc(Sc2nc(Oc3cccc4cccnc34)nc(N3CCN(C(c4ccccc4)c4ccccc4)CC3)n2)o1 | 13 | 14 | 14 | <10 | 100 (≈ 139 µM) | <10 | 14 | 100 (≈ 139 µM) | 100 (≈ 139 µM) | 100 (≈ 139 µM) | 100 (≈ 139 µM) | 12 | 18 | 100 (≈ 139 µM) | <10 | 100 (≈ 139 µM) | 100 (≈ 139 µM) | 11 | 100 (≈ 139 µM) | 100 (≈ 139 µM) |
| O=c1oc2ccccc2cc1-c1nnc(Sc2nc(Oc3cccc4cccnc34)nc(N3CCN(C(c4ccccc4)c4ccc(Cl)cc4)CC3)n2)o1 (stereo not given) | 25 | 19 | 16 | 20 | 100 (≈ 133 µM) | 22 | 21 | 50 (≈ 66.4 µM) | 100 (≈ 133 µM) | 100 (≈ 133 µM) | 50 (≈ 66.4 µM) | 19 | 20 | 100 (≈ 133 µM) | 16 | 100 (≈ 133 µM) | 50 (≈ 66.4 µM) | 22 | 50 (≈ 66.4 µM) | 25 (≈ 33.2 µM) |
| O=c1oc2ccccc2cc1-c1nnc(Sc2nc(Oc3cccc4cccnc34)nc(N3CCN(c4ccccc4F)CC3)n2)o1 | 23 | 20 | 19 | 22 | 100 (≈ 155 µM) | 19 | 20 | 100 (≈ 155 µM) | 50 (≈ 77.3 µM) | 100 (≈ 155 µM) | 100 (≈ 155 µM) | 20 | 19 | 50 (≈ 77.3 µM) | 19 | 25 (≈ 38.7 µM) | 50 (≈ 77.3 µM) | 21 | 100 (≈ 155 µM) | 25 (≈ 38.7 µM) |
| O=c1oc2ccccc2cc1-c1nnc(Sc2nc(Oc3cccc4cccnc34)nc(N3CCN(c4ccc(F)cc4)CC3)n2)o1 | 23 | 16 | 17 | 21 | 100 (≈ 155 µM) | 22 | 21 | 25 (≈ 38.7 µM) | 100 (≈ 155 µM) | 50 (≈ 77.3 µM) | 100 (≈ 155 µM) | 19 | 22 | 100 (≈ 155 µM) | 21 | 50 (≈ 77.3 µM) | 50 (≈ 77.3 µM) | 21 | 50 (≈ 77.3 µM) | 25 (≈ 38.7 µM) |
| O=c1oc2ccccc2cc1-c1nnc(Sc2nc(Oc3cccc4cccnc34)nc(N3CCN(c4cccc(C(F)(F)F)c4)CC3)n2)o1 | 22 | 21 | 21 | 23 | 100 (≈ 144 µM) | 21 | 24 | 12.5 (≈ 17.9 µM) | 25 (≈ 35.9 µM) | 25 (≈ 35.9 µM) | 25 (≈ 35.9 µM) | 21 | 24 | 50 (≈ 71.8 µM) | 21 | 25 (≈ 35.9 µM) | 12.5 (≈ 17.9 µM) | 24 | 50 (≈ 71.8 µM) | 50 (≈ 71.8 µM) |
| COc1ccc(CN2CCN(c3nc(Oc4cccc5cccnc45)nc(Sc4nnc(-c5cc6ccccc6oc5=O)o4)n3)CC2)c(OC)c1OC | 19 | 18 | 23 | 20 | 25 (≈ 34.1 µM) | 22 | 23 | 12.5 (≈ 17.1 µM) | 100 (≈ 136 µM) | 12.5 (≈ 17.1 µM) | 25 (≈ 34.1 µM) | 24 | 23 | 12.5 (≈ 17.1 µM) | 22 | 100 (≈ 136 µM) | 12.5 (≈ 17.1 µM) | 24 | 50 (≈ 68.2 µM) | 100 (≈ 136 µM) |
| COc1ccc(N2CCN(c3nc(Oc4cccc5cccnc45)nc(Sc4nnc(-c5cc6ccccc6oc5=O)o4)n3)CC2)cc1 | 17 | 19 | 22 | 18 | 50 (≈ 75.9 µM) | 22 | 23 | 25 (≈ 38 µM) | 100 (≈ 152 µM) | 12.5 (≈ 19 µM) | 25 (≈ 38 µM) | 24 | 22 | 12.5 (≈ 19 µM) | 23 | 100 (≈ 152 µM) | 12.5 (≈ 19 µM) | 24 | 50 (≈ 75.9 µM) | 100 (≈ 152 µM) |
| O=c1oc2ccccc2cc1-c1nnc(Sc2nc(Oc3cccc4cccnc34)nc(N3CCN(Cc4ccccc4)CC3)n2)o1 | 16 | <10 | 13 | <10 | 100 (≈ 156 µM) | <10 | 17 | 100 (≈ 156 µM) | 100 (≈ 156 µM) | 100 (≈ 156 µM) | 100 (≈ 156 µM) | <10 | 13 | 100 (≈ 156 µM) | 19 | 100 (≈ 156 µM) | 100 (≈ 156 µM) | <10 | 100 (≈ 156 µM) | 100 (≈ 156 µM) |
